# Laboratory results: paper PMC7413254 (Nature Communications, 2020)
# Assays:
# [1] = molecular target: T1, PfNT1 (Plasmodium falciparum, UniProt Q8IDM6); experiment: cell-based; type: cell-based; conditions: SEM
# T1 construct: expressed in transfected cells; host or cells: Xenopus laevis oocytes (stage V-VI), cRNA-injected
# In short: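 Transport measured in Xenopus oocytes expressing the transporters, 1.5 h at 27.5 °C in ND96 pH 5.5 unless noted. For trans-stimulation, VF-6 injected in 25 nL ND96 at pH 5.0–7.0 or Na^+-free (choline) buffer; intracellular levels based on ~400 nL oocyte volume. Ten oocytes per treatment, ≥4 experiments.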
# [2] = tested on: PfCRT; experiment: Influx of VF-6 via PfCRT into the oocyte, solutes tested as potential co-substrates; type: cell-based, Plasmodium falciparum; design: key: X: Compounds that have been tested as potential co-substrates but are not required for influx of VF-6 via PfCRT into the oocyte; conditions: X marks the solute
# [3] = tested on: PfCRT; experiment: Test of solutes as potential co-substrates for influx of VF-6 via PfCRT into the oocyte; type: cell-based, Plasmodium falciparum; design: key: X: Compounds that have been tested as potential co-substrates but are not required for influx of VF-6 via PfCRT into the oocyte; conditions: X = tested
# [4] = molecular target: PfCRT^Dd2 (Plasmodium falciparum, UniProt Q9N623, A220S/I356T/K76T/M74I/N326S/N75E/Q271E/R371I); experiment: [3H]CQ uptake into Xenopus oocytes, cis-inhibition by unlabelled solute; type: cell-based; conditions: for PfCRT-mediated [3H]CQ transport, cis-inhibition (% PfCRTDd2 control): PfCRTDd2 oocytes, background [3H]CQ accumulation subtracted, normalised to oocyte type control; for Uptake of [3H]CQ (% PfCRTDd2 control), cis-inhibition, PfCRTDd2: total [3H]CQ transport, mean ± SEM, SEM
# In short: (§1)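 Oocytes expressing PfCRT isoforms, or non-expressing controls, were incubated 1.5 h at 27.5 °C in ND96 buffer pH 5.5 (96 mM NaCl, 2 mM KCl, 1 mM MgCl2, 1.8 mM CaCl2, 10 mM MES, 10 mM Tris-base), measuring uptake from acidic medium into cytosol. Oocytes were washed ice-cold, SDS-lysed and counted by scintillation.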
# [5] = molecular target: PfCRT^Ecu1110 (Plasmodium falciparum, UniProt Q9N623, A220S/I356L/K76T/N326D); experiment: as above; type: cell-based; conditions: for Uptake of [3H]CQ (% PfCRTEcu1110 control), cis-inhibition / PfCRT-mediated [3H]CQ transport, cis-inhibition (% PfCRTEcu1110 control): PfCRTEcu1110 oocytes; for Uptake of [3H]CQ (% PfCRTEcu1110 control), cis-inhibition / Uptake of [3H]CQ (% PfCRTDd2 control), cis-inhibition, PfCRTEcu1110: total [3H]CQ transport; for Uptake of [3H]CQ (% PfCRTEcu1110 control), cis-inhibition: normalised to the oocyte type control; for PfCRT-mediated [3H]CQ transport, cis-inhibition (% PfCRTEcu1110 control): background [3H]CQ accumulation subtracted, normalised to oocyte type control; for [3H]CQ transport (% PfCRTEcu1110 control), cis-inhibition, PfCRTEcu1110: PfCRT-mediated component (background subtracted), sheet title says normalised to PfCRTDd2 control; for [3H]CQ transport (% PfCRTEcu1110 control), cis-inhibition, PfCRTEcu1110 / Uptake of [3H]CQ (% PfCRTDd2 control), cis-inhibition, PfCRTEcu1110: mean ± SEM, SEM
# In short: as §1
# [6] = tested on: PfCRT; experiment: Potential co-substrates tested for influx of VF-6 via PfCRT into the oocyte; type: cell-based, Plasmodium falciparum; design: key: X: Compounds that have been tested as potential co-substrates but are not required for influx of VF-6 via PfCRT into the oocyte
# [7] = tested on: non-expressing oocytes; experiment: cells; type: cell-based, Xenopus laevis; conditions: total [3H]CQ transport; for Uptake of [3H]CQ (% non-expressing oocyte control), cis-inhibition: non-expressing oocytes, normalised to the oocyte type control; for Uptake of [3H]CQ (% PfCRTDd2 control), cis-inhibition, non-expressing oocytes: mean ± SEM, SEM
# In short: as §1
# [8] = molecular target: PfCRT^3D7 (Plasmodium falciparum, UniProt Q8IBZ9); experiment: cell-based; type: cell-based; conditions: total [3H]CQ transport; for Uptake of [3H]CQ (% PfCRTDd2 control), cis-inhibition, PfCRT3D7: mean ± SEM, SEM
# In short: as §1
# Chain of PfCRT^Ecu1110 (Q9N623 whole entry A220S/I356L/K76T/N326D): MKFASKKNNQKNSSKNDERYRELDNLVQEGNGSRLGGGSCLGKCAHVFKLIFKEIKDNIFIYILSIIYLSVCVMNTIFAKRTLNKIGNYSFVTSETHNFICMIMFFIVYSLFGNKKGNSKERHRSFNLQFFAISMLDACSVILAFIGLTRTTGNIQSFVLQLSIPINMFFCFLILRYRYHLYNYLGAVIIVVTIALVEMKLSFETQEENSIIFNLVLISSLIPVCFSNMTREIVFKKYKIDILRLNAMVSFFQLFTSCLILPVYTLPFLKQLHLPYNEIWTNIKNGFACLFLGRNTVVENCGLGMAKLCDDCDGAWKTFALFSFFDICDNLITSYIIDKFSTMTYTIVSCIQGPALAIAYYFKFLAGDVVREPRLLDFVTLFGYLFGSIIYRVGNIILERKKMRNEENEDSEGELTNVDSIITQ
# Chain of PfCRT^3D7 (Q8IBZ9 59-398): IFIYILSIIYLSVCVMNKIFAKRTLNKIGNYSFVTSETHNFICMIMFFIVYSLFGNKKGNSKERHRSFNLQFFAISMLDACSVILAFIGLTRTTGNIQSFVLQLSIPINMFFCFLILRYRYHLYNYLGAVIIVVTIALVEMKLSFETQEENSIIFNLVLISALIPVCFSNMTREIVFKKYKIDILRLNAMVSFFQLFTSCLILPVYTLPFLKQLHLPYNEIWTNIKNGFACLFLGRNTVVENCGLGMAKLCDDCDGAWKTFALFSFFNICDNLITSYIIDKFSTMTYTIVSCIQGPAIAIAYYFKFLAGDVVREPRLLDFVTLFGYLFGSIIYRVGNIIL
# Chain of PfCRT^Dd2 (Q9N623 whole entry A220S/I356T/K76T/M74I/N326S/N75E/Q271E/R371I, canonical isoform): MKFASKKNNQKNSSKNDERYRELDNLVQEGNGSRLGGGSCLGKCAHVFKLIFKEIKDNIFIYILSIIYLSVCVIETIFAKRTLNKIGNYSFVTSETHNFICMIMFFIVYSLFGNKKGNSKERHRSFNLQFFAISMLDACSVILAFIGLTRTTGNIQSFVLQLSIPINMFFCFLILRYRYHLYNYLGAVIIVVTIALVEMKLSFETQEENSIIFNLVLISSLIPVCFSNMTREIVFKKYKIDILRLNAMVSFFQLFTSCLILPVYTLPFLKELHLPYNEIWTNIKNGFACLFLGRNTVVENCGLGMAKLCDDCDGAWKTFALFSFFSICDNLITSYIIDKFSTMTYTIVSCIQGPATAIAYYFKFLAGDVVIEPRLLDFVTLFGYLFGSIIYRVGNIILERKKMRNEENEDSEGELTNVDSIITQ
# T1 sequence (Q8IDM6 whole entry): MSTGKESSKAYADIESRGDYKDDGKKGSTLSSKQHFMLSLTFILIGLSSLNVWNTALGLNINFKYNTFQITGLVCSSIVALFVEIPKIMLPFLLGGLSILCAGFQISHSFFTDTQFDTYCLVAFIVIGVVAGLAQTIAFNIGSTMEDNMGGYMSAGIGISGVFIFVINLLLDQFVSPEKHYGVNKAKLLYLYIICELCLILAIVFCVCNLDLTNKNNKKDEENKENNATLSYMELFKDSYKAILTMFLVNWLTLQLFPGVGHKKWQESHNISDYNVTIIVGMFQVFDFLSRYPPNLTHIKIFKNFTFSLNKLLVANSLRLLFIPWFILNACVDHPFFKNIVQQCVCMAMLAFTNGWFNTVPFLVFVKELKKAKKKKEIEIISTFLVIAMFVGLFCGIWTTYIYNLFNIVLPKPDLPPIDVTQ
smiles,measurement,setting,value
N[C@@H](CC(=O)O)C(=O)O [L-aspartatic acid],"Uptake of [3H]CQ (% PfCRTDd2 control), trans-stimulation, PfNT1",[1],2.4 ± 0.08 % PfCRTDd2 control
same,Compounds that have been tested as potential co-substrates but are not required for influx of VF-6 via PfCRT into the oocyte,[2],X
same,Tested as potential co-substrate but not required for influx of VF-6 via PfCRT into the oocyte,[3],X
same,"PfCRT-mediated [3H]CQ transport, cis-inhibition (% PfCRTDd2 control)",[4]; [test solute] = 0.5 mM,90 ± 5.7 % PfCRTDd2 control
same,"PfCRT-mediated [3H]CQ transport, cis-inhibition (% PfCRTDd2 control)",[4]; [test solute] = 1 mM,87 ± 6.1 % PfCRTDd2 control
same,"PfCRT-mediated [3H]CQ transport, cis-inhibition (% PfCRTDd2 control)",[4]; [test solute] = 2 mM,73 ± 3.7 % PfCRTDd2 control
same,"Uptake of [3H]CQ (% PfCRTDd2 control), cis-inhibition, PfCRTDd2",[4]; [test solute] = 0.5 mM,93 ± 3.6 % PfCRTDd2 control
same,"Uptake of [3H]CQ (% PfCRTDd2 control), cis-inhibition, PfCRTDd2",[4]; [test solute] = 1 mM,89 ± 5.2 % PfCRTDd2 control
same,"Uptake of [3H]CQ (% PfCRTDd2 control), cis-inhibition, PfCRTDd2",[4]; [test solute] = 2 mM,75 ± 4.6 % PfCRTDd2 control
same,"Uptake of [3H]CQ (% PfCRTEcu1110 control), cis-inhibition",[5]; [test solute] = 0.5 mM,94 ± 4.5 % PfCRTEcu1110 control
same,"Uptake of [3H]CQ (% PfCRTEcu1110 control), cis-inhibition",[5]; [test solute] = 1 mM,90 ± 3.6 % PfCRTEcu1110 control
same,"Uptake of [3H]CQ (% PfCRTEcu1110 control), cis-inhibition",[5]; [test solute] = 2 mM,83 ± 4.3 % PfCRTEcu1110 control
same,"PfCRT-mediated [3H]CQ transport, cis-inhibition (% PfCRTEcu1110 control)",[5]; [test solute] = 0.5 mM,92 ± 1.4 % PfCRTEcu1110 control
same,"PfCRT-mediated [3H]CQ transport, cis-inhibition (% PfCRTEcu1110 control)",[5]; [test solute] = 1 mM,88 ± 2.7 % PfCRTEcu1110 control
same,"PfCRT-mediated [3H]CQ transport, cis-inhibition (% PfCRTEcu1110 control)",[5]; [test solute] = 2 mM,80 ± 1.3 % PfCRTEcu1110 control
same,"[3H]CQ transport (% PfCRTEcu1110 control), cis-inhibition, PfCRTEcu1110",[5]; [test solute] = 0.5 mM,28 ± 0.7 % PfCRTEcu1110 control
same,"[3H]CQ transport (% PfCRTEcu1110 control), cis-inhibition, PfCRTEcu1110",[5]; [test solute] = 2 mM,24 ± 0.1 % PfCRTEcu1110 control
same,"Uptake of [3H]CQ (% PfCRTDd2 control), cis-inhibition, PfCRTEcu1110",[5]; [test solute] = 0.5 mM,31 ± 1.5 % PfCRTDd2 control
same,"Uptake of [3H]CQ (% PfCRTDd2 control), cis-inhibition, PfCRTEcu1110",[5]; [test solute] = 1 mM,30 ± 1.4 % PfCRTDd2 control
same,"Uptake of [3H]CQ (% PfCRTDd2 control), cis-inhibition, PfCRTEcu1110",[5]; [test solute] = 2 mM,27 ± 1.0 % PfCRTDd2 control
same,Tested as potential co-substrate but not required for influx of VF-6 via PfCRT into the oocyte,[6],X
same,"Uptake of [3H]CQ (% non-expressing oocyte control), cis-inhibition",[7]; [test solute] = 0.5 mM,101 ± 4.8 % non-expressing oocyte control
same,"Uptake of [3H]CQ (% non-expressing oocyte control), cis-inhibition",[7]; [test solute] = 1 mM,97 ± 6.3 % non-expressing oocyte control
same,"Uptake of [3H]CQ (% non-expressing oocyte control), cis-inhibition",[7]; [test solute] = 2 mM,100 ± 4.6 % non-expressing oocyte control
same,"Uptake of [3H]CQ (% PfCRTDd2 control), cis-inhibition, non-expressing oocytes",[7]; [test solute] = 0.5 mM,3.9 ± 0.03 % PfCRTDd2 control
same,"Uptake of [3H]CQ (% PfCRTDd2 control), cis-inhibition, non-expressing oocytes",[7]; [test solute] = 1 mM,3.2 ± 0.08 % PfCRTDd2 control
same,"Uptake of [3H]CQ (% PfCRTDd2 control), cis-inhibition, non-expressing oocytes",[7]; [test solute] = 2 mM,3.4 ± 0.1 % PfCRTDd2 control
same,"Uptake of [3H]CQ (% PfCRT3D7 control), cis-inhibition","[8]; PfCRT3D7 oocytes, [test solute] = 2 mM, normalised to the oocyte type control",100 ± 3.5 % PfCRT3D7 control
same,"Uptake of [3H]CQ (% PfCRTDd2 control), cis-inhibition, PfCRT3D7",[8]; [test solute] = 0.5 mM,3.1 ± 0.07 % PfCRTDd2 control
same,"Uptake of [3H]CQ (% PfCRTDd2 control), cis-inhibition, PfCRT3D7",[8]; [test solute] = 1 mM,2.6 ± 0.08 % PfCRTDd2 control
same,"Uptake of [3H]CQ (% PfCRTDd2 control), cis-inhibition, PfCRT3D7",[8]; [test solute] = 2 mM,2.2 ± 0.06 % PfCRTDd2 control
